Laboratory results from patent US11459324B2, “O-glycoprotein-2-acetamido-2-deoxy-3-D-glycopyranosidase inhibitors” (BIOGEN MA INC., priority 2018, dated 2022).
pIC50: −log10 of the molar value.

Target: T1, Recombinant full length human OGA enzyme (Homo sapiens, UniProt O60502)
T1 construct: Recombinant full length human OGA enzyme was purchased from Origene; purchased Origene
T1 sequence (O60502 1-916): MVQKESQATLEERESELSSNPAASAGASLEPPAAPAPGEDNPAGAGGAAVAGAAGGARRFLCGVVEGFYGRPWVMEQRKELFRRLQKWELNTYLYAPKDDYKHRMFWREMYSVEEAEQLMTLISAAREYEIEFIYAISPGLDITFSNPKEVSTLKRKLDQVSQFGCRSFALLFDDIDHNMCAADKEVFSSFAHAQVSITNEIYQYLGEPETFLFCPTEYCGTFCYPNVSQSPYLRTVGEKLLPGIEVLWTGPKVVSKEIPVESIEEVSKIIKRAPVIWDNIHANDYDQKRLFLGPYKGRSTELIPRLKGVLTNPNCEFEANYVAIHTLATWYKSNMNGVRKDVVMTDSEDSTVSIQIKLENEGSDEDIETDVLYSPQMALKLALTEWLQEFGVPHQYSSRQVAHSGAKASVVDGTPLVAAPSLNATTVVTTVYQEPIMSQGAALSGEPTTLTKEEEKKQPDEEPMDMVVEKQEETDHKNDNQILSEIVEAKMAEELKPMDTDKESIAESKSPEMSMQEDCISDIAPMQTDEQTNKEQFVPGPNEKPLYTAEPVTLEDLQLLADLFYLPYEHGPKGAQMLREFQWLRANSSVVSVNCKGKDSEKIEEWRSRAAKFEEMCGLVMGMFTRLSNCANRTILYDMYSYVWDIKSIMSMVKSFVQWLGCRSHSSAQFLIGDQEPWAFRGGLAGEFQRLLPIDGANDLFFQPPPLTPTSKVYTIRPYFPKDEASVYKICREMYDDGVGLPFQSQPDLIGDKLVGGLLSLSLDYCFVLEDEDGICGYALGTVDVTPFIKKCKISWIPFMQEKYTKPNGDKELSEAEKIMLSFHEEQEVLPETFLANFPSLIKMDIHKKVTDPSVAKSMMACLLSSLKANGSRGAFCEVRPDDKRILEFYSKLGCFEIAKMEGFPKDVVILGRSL
Assay: OGA Enzyme Inhibition Biochemical Assay
Conditions: 1 nM OGA, 100 μM 4-MUGlcNAc (Km), pH 6.4, 90 minutes at room temperature, 10-point dose-response from 20 μM
Experimental: OGA Enzyme Inhibition Biochemical Assay
Recombinant full length human OGA enzyme was purchased from Origene. 4-MUGlCNAc substrate was purchased from Sigma. All other reagents were purchased from Sigma or Fisher. Assay buffer consists of the McIlvaine buffer system, pH 6.4 (0.2M Na2HPO4 mixed with 0.1M citric acid) and 0.01% BSA. Reactions consist of 1 nM OGA, 100 μM 4-MUGlcNAc (Km), and compound in a final volume of 10 μl. Reactions were incubated for 90 minutes at room temperature and quenched with 40 μl of 3M glycine, pH 10 and read on a Perkin Elmer Envision plate reader (Ex: 355 nm/Em: 460 nm). Compounds were tested with a 10-point dose-response starting from 20 μM with a 4-fold dilution. Data was fit using GraphPad Prism using a 4-parameter fit with variable slope.

pIC50	SMILES
8.08	CC(=O)Nc1nc(F)c(CN2CC[C@H](Cc3cc(C)ncc3F)C2)s1 [Example 3-28, (S)—N-(4-fluoro-5-((3-((5-fluoro-2-methylpyridin-4-yl)methyl)pyrrolidin-1-yl)methyl)thiazol-2-yl)acetamide]
7.66	COc1cccc(CC2CCN(Cc3cnc(NC(C)=O)s3)C2)c1 (stereo not drawn) [Example 1-14, N-(5-((3-(3-methoxybenzyl)pyrrolidin-1-yl)methyl)thiazol-2-yl)acetamide]
> 9.00	CC(=O)Nc1nc(F)c(CN2C[C@@H](Cc3ncc(F)cn3)C[C@H]2C)s1 [Example 3-42, N-(4-fluoro-5-(((2R,4R)-4-((5-fluoropyrimidin-2-yl)methyl)-2-methylpyrrolidin-1-yl)methyl)thiazol-2-yl)acetamide]
> 9.00	CC(=O)Nc1ncc(CN2CC(Cc3noc(C)n3)CC[C@@H]2C)s1 (stereo partly drawn) [Example 4-17, N-(5-(((2S)-2-methyl-5-((5-methyl-1,2,4-oxadiazol-3-yl)methyl)piperidin-1-yl)methyl)thiazol-2-yl)acetamide]
5.80	CC(=O)Nc1ncc(CN2CCC(C)(Cc3ncc(F)cn3)C2)s1 (stereo not drawn) [Example 2-35, N-(5-((3-((5-fluoropyrimidin-2-yl)methyl)-3-methylpyrrolidin-1-yl)methyl)thiazol-2-yl)acetamide]
7.57	CC(=O)Nc1ncc(CN2CC[C@@H](C)[C@@H](Cc3ncc(F)cn3)C2)s1 (single isomer, unassigned) [Example 2-40]
8.92	CCC(=O)Nc1nc(F)c(CN2CCC[C@H](Cc3ncc(F)cn3)C2)s1 [Example 3-17, (R)-N-(4-fluoro-5-((3-((5-fluoropyrimidin-2-yl)methyl)piperidin-1-yl)methyl)thiazol-2-yl)propionamide]
8.70	CC(=O)Nc1ncc(CN2CC(Cc3ncc(F)cn3)CC2C)s1 (stereo not drawn) [Example 2-17, N-(5-((4-((5-fluoropyrimidin-2-yl)methyl)-2-methylpyrrolidin-1-yl)methyl)thiazol-2-yl)acetamide]
6.01	CCc1cnn(CC2CCCN(Cc3cnc(NC(C)=O)s3)C2)c1 (stereo not drawn) [Example 4-2, N-(5-((3-((4-ethyl-1H-pyrazol-1-yl)methyl)piperidin-1-yl)methyl)thiazol-2-yl)acetamide]
6.45	CC(=O)Nc1ncc(CN2C[C@H](Cc3ncc(F)cn3)C[C@@H]2C)s1 (single isomer, unassigned) [Example 2-18]
6.57	CC(=O)Nc1ncc(CN2CC(Cc3ncc(F)cn3)CC[C@@H]2C(F)(F)F)s1 (stereo partly drawn) [Example 2-50]
6.60	CC(=O)Nc1ncc(CN2CCC(Cc3ncc(F)cn3)C2C)s1 (stereo not drawn) [Example 2-42, N-(5-((3-((5-fluoropyrimidin-2-yl)methyl)-2-methylpyrrolidin-1-yl)methyl)thiazol-2-yl)acetamide]
7.64	CC(=O)Nc1ncc(CN2CCCC(Cc3ccc(F)cn3)C2)s1 (stereo not drawn) [Example 2-5, N-(5-((3-((5-fluoropyridin-2-yl)methyl)piperidin-1-yl)methyl)thiazol-2-yl)acetamide]
7.28	CC(=O)Nc1ncc(CN2CCCC(Cc3ccccc3)C2)s1 (stereo not drawn) [Example 1-28, N-(5-((3-benzylpiperidin-1-yl)methyl)thiazol-2-yl)acetamide]
6.30	CC(=O)Nc1ncc(CN2CCCC(Cn3cc(F)cn3)C2)s1 (stereo not drawn) [Example 4-1, N-(5-((3-((4-fluoro-1H-pyrazol-1-yl)methyl)piperidin-1-yl)methyl)thiazol-2-yl)acetamide]
9.00	CC(=O)Nc1ncc(CN2CCC[C@H](Cc3ncc(F)cn3)C2)s1 [Example 3-1, N-[5-[[(3R)-3-[(5-fluoropyrimidin-2-yl)methyl]-1-piperidyl]methyl]thiazol-2-yl]acetamide]
6.64	CC(=O)Nc1ncc(CN2CCCC(Cn3cc(C)cn3)C2)s1 (stereo not drawn) [Example 4-10, N-(5-((3-((4-methyl-1H-pyrazol-1-yl)methyl)piperidin-1-yl)methyl)thiazol-2-yl)acetamide]
7.96	CC(=O)Nc1ncc(CN2CC(F)CC(Cc3ncc(F)cn3)C2)s1 (stereo not drawn) [Example 3-2, N-(5-((3-fluoro-5-((5-fluoropyrimidin-2-yl)methyl)piperidin-1-yl)methyl)thiazol-2-yl)acetamide]

pIC50	SMILES
6.89	CC(=O)Nc1nnc(CN2CC[C@H](Cc3cc(C)nc(C)c3)C2)s1 [Example 3-47, (S)—N-(5-((3-((2,6-dimethylpyridin-4-yl)methyl)pyrrolidin-1-yl)methyl)-1,3,4-thiadiazol-2-yl)acetamide]
8.40	CC(=O)Nc1ncc(CN2CCCC(Cc3ccccn3)C2)s1 (stereo not drawn) [Example 1-2, N-(5-((3-(pyridin-2-ylmethyl)piperidin-1-yl)methyl)thiazol-2-yl)acetamide]
8.05	CC(=O)Nc1ncc(CN2CCC[C@H](Cc3ccc(Cl)cc3)C2)s1 (stereo in doubt) [Example 4-25, N-(5-((3-(4-chlorobenzyl)piperidin-1-yl)methyl)thiazol-2-yl)acetamide]
8.70	CC(=O)Nc1ncc(CN2CC[C@H](C)[C@@H](Cc3ncc(F)cn3)C2)s1 (single isomer, unassigned) [Example 2-37]
6.06	CC(=O)Nc1ncc(CN2CCC(F)(Cc3ncc(F)cn3)C2)s1 (stereo not drawn) [Example 2-16, N-(5-((3-fluoro-3-((5-fluoropyrimidin-2-yl)methyl)pyrrolidin-1-yl)methyl)thiazol-2-yl)acetamide]
< 4.70	CC(=O)Nc1ncc(CN2C[C@H](Cc3ncc(F)cn3)C[C@@H]2C(F)(F)F)s1 (single isomer, unassigned) [Example 2-44]
6.89	CC(=O)Nc1ncc(CN2C[C@@H](Cc3ncc(F)cn3)C[C@H]2C(F)(F)F)s1 (single isomer, unassigned) [Example 2-45]
8.15	CC(=O)Nc1ncc(CN2CCCC(Cc3cncc(F)c3)C2)s1 (stereo not drawn) [Example 1-12, N-(5-((3-((5-fluoropyridin-3-yl)methyl)piperidin-1-yl)methyl)thiazol-2-yl)acetamide]
8.05	COc1ccnc(C[C@H]2CCN(Cc3cnc(NC(C)=O)s3)C2)n1 [Example 3-12, (R)-N-(5-((3-((4-methoxypyrimidin-2-yl)methyl)pyrrolidin-1-yl)methyl)thiazol-2-yl)acetamide]
8.40	CC(=O)Nc1ncc(CN2CCCC(Cc3cncc(C)n3)C2)s1 (stereo not drawn) [Example 1-33, N-(5-((3-((6-methylpyrazin-2-yl)methyl)piperidin-1-yl)methyl)thiazol-2-yl)acetamide]
7.96	CC(=O)Nc1ncc(CN2CCCC(Cc3cccnc3)C2)s1 (stereo not drawn) [Example 1-27, N-(5-((3-(pyridin-3-ylmethyl)piperidin-1-yl)methyl)thiazol-2-yl)acetamide]
6.97	CC(=O)Nc1ncc(CN2C[C@@H](Cc3ncc(F)cn3)C[C@@H]2C)s1 (single isomer, unassigned) [Example 2-21]
8.77	COc1cc(C(C)C2CCN(Cc3sc(NC(C)=O)nc3F)C2)ncn1 (stereo not drawn) [Example 2-52, N-(4-fluoro-5-((3-(1-(6-methoxypyrimidin-4-yl)ethyl)pyrrolidin-1-yl)methyl)thiazol-2-yl)acetamide]
7.77	COc1cccc(CC2CCN(Cc3cnc(NC(C)=O)s3)C2)n1 (stereo not drawn) [Example 1-18, N-(5-((3-((6-methoxypyridin-2-yl)methyl)pyrrolidin-1-yl)methyl)thiazol-2-yl)acetamide]
8.52	CC(=O)Nc1ncc(CN2CCCC(Cc3nc(C)nc4ccsc34)C2)s1 (stereo not drawn) [Example 1-43, N-(5-((3-((2-methylthieno[3,2-d]pyrimidin-4-yl)methyl)piperidin-1-yl)methyl)thiazol-2-yl)acetamide]
6.29	CC(=O)Nc1ncc(CN2CCCC(Cc3ncc(F)cn3)C2C)s1 (stereo not drawn) [Example 2-41, N-(5-((3-((5-fluoropyrimidin-2-yl)methyl)-2-methylpiperidin-1-yl)methyl)thiazol-2-yl)acetamide]
8.05	COc1cc(C[C@H]2CCN(Cc3sc(NC(C)=O)nc3F)C2)ccn1 [Example 3-32, (S)—N-(4-fluoro-5-((3-((2-methoxypyridin-4-yl)methyl)pyrrolidin-1-yl)methyl)thiazol-2-yl)acetamide]
> 9.00	CC(=O)Nc1ncc(CN2C[C@H](Cc3ncc(F)cn3)CC[C@H]2C)s1 (single isomer, unassigned) [Example 2-27]
